{"source": "patent US6011019A", "about": "“Vasoactive effects and free radical generation by β-amyloid peptides” (University of South Florida, priority 1996, dated 2000)", "test_system": "aortic rings", "assay": "β-amyloid augmentation of phenylephrine (PE) induced contraction of aortic rings", "design": "species or system rat", "conditions": "for PE induced contraction, +β-Amyloid P1 (±SEM): after 10^-6 M β-amyloid, maximum contraction without β-amyloid = 100%; for PE induced contraction, +β-Amyloid P2 (±SEM): repeated contraction after washing, no further β-amyloid", "description": "The blood vessel preparations were mounted on stainless steel hooks attached to a force-displacement transducer and equilibrated under the optimum tension of 1.3 g for a period of sixty minutes in a tissue bath (10 ml) containing oxygenated (5% CO2 in O2) Kreb's buffer at 37° C. The buffer was changed every fifteen minutes. After equilibration for sixty minutes the viability of the blood vessel with intact endothelium was established by constricting the blood vessel using phenylephrine ([…]). This dose of phenylephrine elicited 80% of the maximum response. […] The vessel preparations were washed for fifteen minutes before various manipulations as described below.\nThe procedure was then repeated following incubation of the tissue with 10^-6 M β-amyloid for fifteen minutes (P1). The tissue was then rinsed and contractions repeated twice following fifteen minute incubation (P2 & P3) without further addition of β-amyloid. Arrows are shown for points of addition for P3.\nFollowing a fifteen minute incubation, the preparations were contracted with 10^-7 M phenylephrine (PE) as described earlier. Control contractions with PE alone were carried out in presence of the various test compounds. Values represent the mean±SEM of four or more experiments. The heat-inactivated SOD was prepared by placing it in boiling water for thirty minutes followed by cooling prior to use. The hydrogen peroxide-inactivated SOD was prepared by exposing SOD to 10 mM H2 O2 for thirty minutes at pH 8.5 and subsequent separation using Microcon filtration system. The amyloid induced PE contraction was blocked by active SOD. Neither albumin or inactivated SOD had any effect on the amyloid activity.\nThe effect of preincubation of blood vessel with 10^-6 M β-amyloidon contraction induced by phenylephrine (2, 4, 8, & 16×10^-8 M is shown in Table 1). The maximum contraction in the absence of β-amyloid is taken as 100% and the values obtained following exposure to β-amyloid are expressed as percent of control value. After washing out phenylephrine and acetylcholine of the control contraction, β-amyloid augmented the phenylephrine induced contractions (P1). This effect was blocked by SOD. Washing out the phenylephrine and acetylcholine of the post peptide contraction and repeating the contractions caused further enhancement (P2). Values represent the mean±SEM of nine or more experiments.\nThe tissue was then incubated for fifteen minutes with β-amyloid (5×10^-7 M) with or without the drug, followed by contractions with PE. The concentrations compounds used were: L-NMMA, an inhibitor of NO synthase (10^-4 M); indomethacin, an inhibitor of the cyclooxygenase pathway (10^-5 M); SQ 29548, a thromboxane A2 receptor antagonist (10^-5 M); and catalase (1000 units/ml). Values are represented as percentage of the maximal contraction obtained with β-amyloid and PE alone and standardized to remove the intrinsic effects (if any) of each drug on PE contraction alone. The results represent the mean±SEM of five or more experiments."}
{"substance": "β-amyloid", "values": [{"measurement": "PE induced contraction, +β-Amyloid P1 (±SEM)", "setting": "PE 2×10^-8 M", "value": "13.3(5.9) percent of control value"}, {"measurement": "PE induced contraction, +β-Amyloid P2 (±SEM)", "setting": "PE 2×10^-8 M", "value": "20(5.0) percent of control value"}, {"measurement": "PE induced contraction, +β-Amyloid P1 (±SEM)", "setting": "PE 4×10^-8 M", "value": "75(6.0) percent of control value"}, {"measurement": "PE induced contraction, +β-Amyloid P2 (±SEM)", "setting": "PE 4×10^-8 M", "value": "99(15.0) percent of control value"}, {"measurement": "PE induced contraction, +β-Amyloid P1 (±SEM)", "setting": "PE 8×10^-8 M", "value": "105(15.0) percent of control value"}, {"measurement": "PE induced contraction, +β-Amyloid P2 (±SEM)", "setting": "PE 8×10^-8 M", "value": "133(20.0) percent of control value"}, {"measurement": "PE induced contraction, +β-Amyloid P1 (±SEM)", "setting": "PE 16×10^-8 M", "value": "128(11.7) percent of control value"}, {"measurement": "PE induced contraction, +β-Amyloid P2 (±SEM)", "setting": "PE 16×10^-8 M", "value": "141(17.6) percent of control value"}, {"measurement": "PE contraction after washing the β-amyloid treated tissue", "setting": "subsequent contraction with PE", "value": "showed further increase"}]}
